Experimental findings from article PMC4131897 (Biochemistry, 2014) are described below.

Holding throughout (format): binding
The target of experiment [1] is T1, BjPutA (proline utilization A) (Bradyrhizobium diazoefficiens, UniProt Q89E26, T348Y).
T1 sequence (Q89E26 1-999 T348Y): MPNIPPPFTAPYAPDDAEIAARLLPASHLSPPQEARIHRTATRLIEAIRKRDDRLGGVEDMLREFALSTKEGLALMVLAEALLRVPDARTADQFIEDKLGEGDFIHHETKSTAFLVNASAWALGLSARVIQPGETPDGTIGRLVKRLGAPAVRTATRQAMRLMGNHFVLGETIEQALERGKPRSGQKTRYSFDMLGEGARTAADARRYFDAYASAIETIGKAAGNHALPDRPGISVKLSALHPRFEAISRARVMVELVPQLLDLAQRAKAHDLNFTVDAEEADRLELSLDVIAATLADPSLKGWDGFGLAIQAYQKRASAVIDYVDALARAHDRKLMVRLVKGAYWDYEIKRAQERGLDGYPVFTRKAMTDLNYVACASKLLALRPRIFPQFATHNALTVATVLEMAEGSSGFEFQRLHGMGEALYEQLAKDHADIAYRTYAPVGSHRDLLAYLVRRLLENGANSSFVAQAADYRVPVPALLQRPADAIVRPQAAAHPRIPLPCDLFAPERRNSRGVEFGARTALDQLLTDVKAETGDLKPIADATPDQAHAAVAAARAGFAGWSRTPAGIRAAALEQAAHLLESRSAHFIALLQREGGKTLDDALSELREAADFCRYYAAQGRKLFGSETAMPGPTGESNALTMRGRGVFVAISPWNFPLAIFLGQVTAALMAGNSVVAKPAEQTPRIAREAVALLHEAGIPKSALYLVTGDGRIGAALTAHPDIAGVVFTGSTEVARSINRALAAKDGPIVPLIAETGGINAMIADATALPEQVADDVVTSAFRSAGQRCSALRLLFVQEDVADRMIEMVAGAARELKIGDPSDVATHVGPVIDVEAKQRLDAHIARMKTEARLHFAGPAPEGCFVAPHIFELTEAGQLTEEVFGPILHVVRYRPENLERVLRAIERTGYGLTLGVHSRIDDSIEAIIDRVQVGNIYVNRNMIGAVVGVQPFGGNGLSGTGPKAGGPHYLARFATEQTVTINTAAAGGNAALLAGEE
The experiment in a line: intrinsic tryptophan fluorescence quenching.

Experiment [2] deals with T2, BjPutA (proline utilization A) (Bradyrhizobium diazoefficiens, UniProt Q89E26, S607Y).
T2 sequence (Q89E26 1-999 S607Y): T1 sequence (Q89E26 1-999 T348Y) with Y348T, S607Y
The experiment in a line: intrinsic tryptophan fluorescence quenching.

For experiment [3], the target named is T3, BjPutA (proline utilization A) (Bradyrhizobium diazoefficiens, UniProt Q89E26).
T3 sequence (Q89E26 1-999): T1 sequence (Q89E26 1-999 T348Y) with Y348T
The experiment in a line: intrinsic tryptophan fluorescence quenching, single-site fit.

Numbering of substitutions follows the chain as printed.

By Kd is commonly meant the free concentration of one partner at which half of the binding sites on the other are occupied at equilibrium, for simple one-to-one binding. Read a high Kd as weaker binding. Consider `NC(=O)c1ccc[n+]([C@@H]2O[C@H](COP(=O)(O)OP(=O)(O)OC[C@H]3O[C@@H](n4cnc5c(N)ncnc54)[C@H](O)[C@@H]3O)[C@@H](O)[C@H]2O)c1` [NAD^+], for which the figures for the Kd in experiment [1], in experiment [2] and in experiment [3] were 750 ± 60 nM, 1000 ± 40 nM and 600 ± 40 nM, respectively.
